Results published in US4351948A, “Imidazole hydrazone derivatives” (priority 1980, dated 1982).
Where two headings read alike, the source gives them in different places.

Key:
Klebsiella pneumoniac = assay: Anti-bacterial activity, zone diameter; format: cell-based; settings: 50 μg; Klebsiella pneumoniac; read-out: Zone diameter given by 50 μg of drug
From the text: (§1) The anti-bacterial activity of the compound HC274 according to the present invention was also compared with the activity of known anti-bacterial agents with the following results: […]

Staphylococcus aureus = assay: Anti-bacterial activity, zone diameter; format: cell-based; settings: 50 μg, read-out: Zone diameter given by 50 μg of drug
From the text: as §1

Nocardia brasiliensis = assay: Anti-bacterial activity, zone diameter; format: cell-based; settings: 50 μg, read-out: Zone diameter given by 50 μg of drug
From the text: as §1

pseudomonas aeruginosa = assay: Anti-bacterial activity, zone diameter; format: cell-based; settings: 50 μg; pseudomonas aeruginosa; read-out: Zone diameter given by 50 μg of drug
From the text: as §1

Nocardia asteroides = assay: Anti-bacterial activity, zone diameter; format: cell-based; settings: 50 μg, read-out: Zone diameter given by 50 μg of drug
From the text: as §1

Proteus vulgaris = assay: Anti-bacterial activity, zone diameter; format: cell-based; settings: 50 μg, read-out: Zone diameter given by 50 μg of drug
From the text: as §1

Streptococcus pyrogenes = assay: Anti-bacterial activity, zone diameter; format: cell-based; settings: 50 μg; Streptococcus pyrogenes; read-out: Zone diameter given by 50 μg of drug
From the text: as §1

Escherichia coli = assay: Anti-bacterial activity, zone diameter; format: cell-based; settings: 50 μg, read-out: Zone diameter given by 50 μg of drug
From the text: as §1

[1] = test system: platelet thromboxane generation; assay: Inhibition of platelet thromboxane generation (TxB2, collagen-stimulated human platelet rich plasma); format: cell-based; settings: Homo sapiens, 10 min, read-out: Activity IC50 (50% inhibition of TxB2 generation)
Description: The compounds used according to the invention as anti-thrombotics were tested by the following method for their ability to inhibit platelet thromboxane generation.
Human venous blood was collected from healthy male donors, who had denied any medication in the previous 14 days. Nine volumes of blood were mixed with one volume of 3.24% trisodium citrate. The citrated blood was centrifuged at 160 g for 10 mins. at 22° C. to obtain platelet rich plasma (PRP). The platelets were then counted on a Coulter counter, and the platelet count was adjusted to 200,000 per μl with plasma.
The PRP was then dispensed as aliquots into micro-Eppendorf tubes, maintained at 37° C. in a dry bath. The compounds dissolved either in saline, ethanol, or DMSO were added in duplicate to the PRP aliquots to produce final concentrations of 0.3, 3 and 30 μg/ml. When ethanol and DMSO were used as the vehicle, triplicate controls containing the same percentage of vehicle as the test compounds were made. The final concentration or organic solvent was never more than 0.1%, which in previous experiments had no effect on TxB2 generation.
Following a 10 min. incubation with test compounds or vehicle, collagen was added to produce a final concentration of 8 μg/ml. The tubes were then whirly-mixed for 15 seconds and replaced in the dry bath for a further 10 minutes, controls received saline instead of collagen. The reaction was then stopped by rapid centrifugation, 15,000 g for 3 mins. The plasma was removed and frozen at -29° C. until assayed.
Briefly, 100 μl aliquots, in tricine buffered saline+0.8% gelatin (pH 8.0) of the following were incubated together for 1 hour at 37° C.: thromboxane Tx B2 (plasma extract, spiked plasma extract or standards 20 to 20,000 pg/ml), ^3 H--TxB2 (approximately 15,000 dpm) and anti-TxB2 antiserum (0.5 μg/100 μl). The free and protein bound ^3 H--TxB2 were separated by ammonium sulphate precipitation followed by centrifugation. 300 μl of the supernatant was added to an aqueous scintillation fluid, and the radioactivity present was counted in a liquid scintillation counter. The binding of ^3 H--TxB2 in the absence of added TxB2 was approximately 55%. The least amount of TxB2 to be detected accurately in the plasma was 0.08 ng/ml. Cross reactivity with other prostaglandins is less than 0.005% except PGD2 which is 1%.
Thus plasma samples were assayed to give a rough approximation of TxB2 content. The plasma was then appropriately diluted and assayed in duplicate to give accurate values.
The amount of TxB2 generated by the collagen was calculated by subtracting mean values obtained for the saline stimulated platelets from the mean values obtained from the collagen stimulated platelets. Then the amount of TxB2 generated in the presence of each concentration of compound was expressed as a % control and dose response curves were then constructed to determine the concentration of compound which produced a 50% inhibition.

[2] = test system: Desulfovibrio desulfuricans API-CORE; assay: Minimal inhibitory concentration against anaerobic bacteria; settings: 24 h
[3] = test system: Desulfovibrio desulfuricans API-BREWER; assay: as above; settings: 24 h
[4] = read-out: Minimal Inhibitory Concentration, Test 1, 24 hours at 37° C.
[5] = read-out: Minimal Inhibitory Concentration, Test 2, 24 hours at 37° C.
[6] = read-out: Minimal Inhibitory Concentration, Test 3, 24 hours at 37° C.

Cl.Clc1ccc(/C(Cn2ccnc2)=N\Nc2ccc(Cl)cc2Cl)cc1 [HC274, (E)-1-(4-chlorophenyl)-2-(1H-imidazol-1-yl)ethanone, 2,4-dichlorophenylhydrazone, hydrochloride]
zone of inhibition at 50 µg/disc (Klebsiella pneumoniac): 0 mm
zone of inhibition at 50 µg/disc (Staphylococcus aureus): 8 mm
zone of inhibition at 50 µg/disc (Nocardia brasiliensis): 12 mm
zone of inhibition at 50 µg/disc (pseudomonas aeruginosa): 0 mm
zone of inhibition at 50 µg/disc (Nocardia asteroides): 11 mm
zone of inhibition at 50 µg/disc (Proteus vulgaris): 0 mm
zone of inhibition at 50 µg/disc (Streptococcus pyrogenes): 9 mm
zone of inhibition at 50 µg/disc (Escherichia coli): 0 mm
IC50 [1]: 15.9 µM
MIC [2, 4]: 0.75 µg/mL
MIC [2, 5]: 1 µg/mL
MIC [2, 6]: 1 µg/mL
MIC [3, 4]: 0.75 µg/mL
MIC [3, 5]: 1 µg/mL
MIC [3, 6]: 0.5 µg/mL
